Reference: patent US12384808B2, “Modulators of TNF-α activity” (Forward Therapeutics, Inc., priority 2022, dated 2025)

Biological target: TNFα (Homo sapiens, UniProt P01375)
Test: TNFα Induced HEK Blue Cellular Assay
Format: cell-based
Conditions: HEK Blue TNFα reporter cells, TNFα 100 pg/ml, 24 hrs at 37° C., secreted alkaline phosphatase (QUANTI-Blue) read at 620 nm; read-out: IC50 value
Method in brief: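 IC50 fitted with a 4-parameter logistic model from % inhibition, normalised to DMSO controls with and without stimulation. Readout: QUANTI-Blue SEAP at 620 nm after 24 h, 37 °C exposure to TNFα (100 pg/ml final) and test compound at […]–0.5 nM final.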

TNFα, sequence (P01375 77-233 limits assumed): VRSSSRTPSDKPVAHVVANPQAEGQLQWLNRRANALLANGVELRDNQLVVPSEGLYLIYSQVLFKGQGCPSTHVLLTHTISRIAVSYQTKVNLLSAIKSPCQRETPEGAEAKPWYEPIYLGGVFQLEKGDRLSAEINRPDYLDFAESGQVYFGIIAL

Row | IC50 [nM] | SMILES
1 | < 100 | CN1C(=O)c2cccc(OC(F)F)c2[C@H]2C[C@@H]1c1nc3cc(F)c(-c4ccc(P(C)(C)=O)c(F)c4F)cc3n12 [Example 55, (1R,11R)-18-(difluoromethoxy)-5-[4-(dimethylphosphoryl)-2,3-difluorophenyl]-6-fluoro-12-methyl-2,9,12-triazapentacyclo[9.8.1.0^{2,10}.0^{3,8}.0^{14,19}]icosa-3(8),4,6,9,14(19),15,17-heptaen-13-one]
2 | < 100 | [2H]C([2H])([2H])N1C(=O)c2cccc(OC(F)F)c2[C@H]2C[C@@H]1c1nc3ccc(-c4ccc(CP(C)(C)=O)c(F)c4F)cc3n12 [Example 76, (7R,14R)-1-(difluoromethoxy)-11-(4-((dimethylphosphoryl)methyl)-2,3-difluorophenyl)-6-(methyl-d3)-6,7-dihydro-7,14-methanobenzo[f]benzo[4,5]imidazo[1,2-a][1,4]diazocin-5(14H)-one]
3 | < 100 | CN1C(=O)c2cccc(OC(F)F)c2[C@H]2C[C@@H]1c1nc3ccc(-c4cnc(NCP(C)(C)=O)c(F)c4)cc3n12 [Example 16, (1R,11R)-18-(difluoromethoxy)-5-(6-{[(dimethylphosphoryl)methyl]amino}-5-fluoropyridin-3-yl)-12-methyl-2,9,12-triazapentacyclo[9.8.1.0^{2,10}.0^{3,8}.0^{14,19}]icosa-3(8),4,6,9,14(19),15,17-heptaen-13-one]
4 | < 100 | [2H]C([2H])([2H])N1C(=O)c2cccc(OC(F)F)c2[C@H]2C[C@@H]1c1nc3ccc(-c4ccc(P(C)(C)=O)cc4)cc3n12 [Example 65, (7R,14R)-1-(difluoromethoxy)-11-(4-(dimethylphosphoryl)phenyl)-6-(methyl-d3)-6,7-dihydro-7,14-methanobenzo[f]benzo[4,5]imidazo[1,2-a][1,4]diazocin-5(14H)-one]
5 | < 100 | [2H]C([2H])([2H])N1C(=O)c2cccc(OC(F)F)c2[C@H]2C[C@@H]1c1nc3cc(F)c(-c4ccc(CP(C)(C)=O)c(F)c4)cc3n12 [Example 78, (7R,14R)-1-(difluoromethoxy)-11-(4-((dimethylphosphoryl)methyl)-3-fluorophenyl)-10-fluoro-6-(methyl-d3)-6,7-dihydro-7,14-methanobenzo[f]benzo[4,5]imidazo[1,2-a][1,4]diazocin-5(14H)-one]
6 | 100 to 1000 | CP(C)(=O)c1c(F)cc(-c2ccc3nc4n(c3c2)[C@@H]2C[C@H]4NC(=O)c3cccc(OC(F)F)c32)cc1F [Example 35, (1R,11R)-18-(difluoromethoxy)-5-[4-(dimethylphosphoryl)-3,5-difluorophenyl]-2,9,12-triazapentacyclo[9.8.1.0^{2,10}.0^{3,8}.0^{14,19}]icosa-3(8),4,6,9,14(19),15,17-heptaen-13-one]
7 | < 100 | [2H]C([2H])([2H])N1C(=O)c2cccc(OC(F)F)c2[C@H]2C[C@@H]1c1nc3ccc(-c4cc(F)c(P(C)(C)=O)c(OC)c4)cc3n12 [Example 129, (7R,14R)-1-(difluoromethoxy)-11-(4-(dimethylphosphoryl)-3-fluoro-5-methoxyphenyl)-6-(methyl-d3)-6,7-dihydro-7,14-methanobenzo[f]benzo[4,5]imidazo[1,2-a][1,4]diazocin-5(14H)-one]
8 | < 100 | [2H]C([2H])([2H])N1C(=O)c2cccc(OC(F)F)c2[C@H]2C[C@@H]1c1nc3ccc(-c4ccc(C(C)P(C)(C)=O)cc4)cc3n12 (single isomer, unassigned) [Example 85, (7R,14R)-1-(difluoromethoxy)-11-(4-((S or R)-1-(dimethylphosphoryl)ethyl)phenyl)-6-(methyl-d3)-6,7-dihydro-7,14-methanobenzo[f]benzo[4,5]imidazo[1,2-a][1,4]diazocin-5(14H)-one]
9 | < 100 | [2H]C([2H])([2H])N1C(=O)c2cccc(OC(F)F)c2[C@H]2C[C@@H]1c1nc3ccc(-c4ccc([C@@](C)(O)P(C)(C)=O)cc4)cc3n12 (single isomer, unassigned) [Example 111, (7R,14R)-1-(difluoromethoxy)-11-(4-((R or S)-1-(dimethylphosphoryl)-1-hydroxyethyl)phenyl)-6-(methyl-d3)-6,7-dihydro-7,14-methanobenzo[f]benzo[4,5]imidazo[1,2-a][1,4]diazocin-5(14H)-one]
10 | < 100 | CN1C(=O)c2cccc(OC(F)F)c2[C@H]2C[C@@H]1c1nc3ccc(-c4ccc(NCP(C)(C)=O)nc4)cc3n12 [Example 23, (1R,11R)-18-(difluoromethoxy)-5-(6-{[(dimethylphosphoryl)methyl]amino}pyridin-3-yl)-12-methyl-2,9,12-triazapentacyclo[9.8.1.0^{2,10}.0^{3,8}.0^{14,19}]icosa-3(8),4,6,9,14(19),15,17-heptaen-13-one]
11 | < 100 | CCN1C(=O)c2cccc(OC(F)F)c2[C@H]2C[C@@H]1c1nc3ccc(-c4cc(F)c(P(C)(C)=O)c(F)c4)cc3n12 [Example 46, (1R,11R)-18-(difluoromethoxy)-5-[4-(dimethylphosphoryl)-3,5-difluorophenyl]-12-ethyl-2,9,12-triazapentacyclo[9.8.1.0^{2,10}.0^{3,8}.0^{14,19}]icosa-3(8),4,6,9,14(19),15,17-heptaen-13-one]
12 | 100 to 1000 | CP(C)(=O)c1ccc(-c2ccc3nc4n(c3c2)[C@@H]2C[C@H]4NC(=O)c3cccc(OC(F)F)c32)cn1 [Example 3, (7R,14R)-1-(difluoromethoxy)-11-(6-(dimethylphosphoryl)pyridin-3-yl)-6,7-dihydro-7,14-methanobenzo[f]benzo[4,5]imidazo[1,2-a][1,4]diazocin-5(14H)-one]
13 | < 100 | [2H]C([2H])([2H])N1C(=O)c2cccc(OC(F)F)c2[C@H]2C[C@@H]1c1nc3ccc(-c4cnc(P(C)(C)=O)c(C)c4)cc3n12 [Example 134, (7R,14R)-1-(difluoromethoxy)-11-(6-(dimethylphosphoryl)-5-methylpyridin-3-yl)-6-(methyl-d3)-6,7-dihydro-7,14-methanobenzo[f]benzo[4,5]imidazo[1,2-a][1,4]diazocin-5(14H)-one]
14 | < 100 | [2H]C([2H])([2H])N1C(=O)c2cccc(OC(F)F)c2[C@H]2C[C@@H]1c1nc3ccc(-c4ccc(CP(C)(C)=O)cc4)cc3n12 [Example 70, (7R,14R)-1-(difluoromethoxy)-11-(4-((dimethylphosphoryl)methyl)phenyl)-6-(methyl-d3)-6,7-dihydro-7,14-methanobenzo[f]benzo[4,5]imidazo[1,2-a][1,4]diazocin-5(14H)-one]
15 | < 100 | CP(C)(=O)c1ccc(-c2ccc3nc4n(c3c2)[C@@H]2C[C@H]4N(C3CC3)C(=O)c3cccc(OC(F)F)c32)cn1 [Example 47, (1R,11R)-12-cyclopropyl-18-(difluoromethoxy)-5-[6-(dimethylphosphoryl)pyridin-3-yl]-2,9,12-triazapentacyclo[9.8.1.0^{2,10}.0^{3,8}.0^{14,19}]icosa-3(8),4,6,9,14(19),15,17-heptaen-13-one]
16 | 100 to 1000 | [2H]C([2H])([2H])N1C(=O)c2cccc(OC)c2[C@H]2C[C@@H]1c1nc3ccc(-c4cc(F)c(P(C)(C)=O)cc4F)cc3n12 [Example 74, (7R,14R)-11-(4-(dimethylphosphoryl)-2,5-difluorophenyl)-1-methoxy-6-(methyl-d3)-6,7-dihydro-7,14-methanobenzo[f]benzo[4,5]imidazo[1,2-a][1,4]diazocin-5(14H)-one]
17 | < 100 | CN1C(=O)c2cccc(OC(F)F)c2[C@H]2C[C@@H]1c1nc3ccc(-c4ccc(P(C)(C)=O)c(F)c4F)cc3n12 [Example 36, (1R,11R)-18-(difluoromethoxy)-5-[4-(dimethylphosphoryl)-2,3-difluorophenyl]-12-methyl-2,9,12-triazapentacyclo[9.8.1.0^{2,10}.0^{3,8}.0^{14,19}]icosa-3(8),4,6,9,14(19),15,17-heptaen-13-one]
18 | 100 to 1000 | [2H]C([2H])([2H])N1C(=O)c2cccc(OC(F)F)c2[C@H]2C[C@@H]1c1nc3ccc(-c4cnc(P(C)(C)=O)cc4C)cc3n12 [Example 87, (7R,14R)-1-(difluoromethoxy)-11-(6-(dimethylphosphoryl)-4-methylpyridin-3-yl)-6-(methyl-d3)-6,7-dihydro-7,14-methanobenzo[f]benzo[4,5]imidazo[1,2-a][1,4]diazocin-5(14H)-one]
19 | < 100 | CP(C)(=O)Cc1ccc(-c2ccc3nc4n(c3c2)[C@@H]2C[C@H]4NC(=O)c3cccc(OC(F)F)c32)cc1F [Example 72, (7R,14R)-1-(difluoromethoxy)-11-(4-((dimethylphosphoryl)methyl)-3-fluorophenyl)-6,7-dihydro-7,14-methanobenzo[f]benzo[4,5]imidazo[1,2-a][1,4]diazocin-5(14H)-one]
20 | < 100 | CCN1C(=O)c2cccc(OC(F)F)c2[C@H]2C[C@@H]1c1nc3ccc(-c4ccc(P(C)(C)=O)c(F)c4)cc3n12 [Example 45, (1R,11R)-18-(difluoromethoxy)-5-[4-(dimethylphosphoryl)-3-fluorophenyl]-12-ethyl-2,9,12-triazapentacyclo[9.8.1.0^{2,10}.0^{3,8}.0^{14,19}]icosa-3(8),4,6,9,14(19),15,17-heptaen-13-one]
21 | < 100 | CP(C)(=O)Cc1c(F)cc(-c2ccc3nc4n(c3c2)[C@@H]2C[C@H]4NC(=O)c3cccc(OC(F)F)c32)cc1F [Example 81, (7R,14R)-1-(difluoromethoxy)-11-(4-((dimethylphosphoryl)methyl)-3,5-difluorophenyl)-6,7-dihydro-7,14-methanobenzo[f]benzo[4,5]imidazo[1,2-a][1,4]diazocin-5(14H)-one]
22 | < 100 | [2H]C([2H])([2H])N1C(=O)c2cccc(OC(F)F)c2[C@H]2C[C@@H]1c1nc3ccc(-c4ccc(C(C)P(C)(C)=O)cc4)cc3n12 (single isomer, unassigned) [Example 86, (7R,14R)-1-(difluoromethoxy)-11-(4-((R or S)-1-(dimethylphosphoryl)ethyl)phenyl)-6-(methyl-d3)-6,7-dihydro-7,14-methanobenzo[f]benzo[4,5]imidazo[1,2-a][1,4]diazocin-5(14H)-one]
